Assay [1] has as its target T1, full-length MALT1 protein (Strep-MALT1(1-824)-His) (Homo sapiens, UniProt Q9UDY8).
T1 construct: full-length MALT1 protein (Strep-MALT1(1-824)-His) purified from baculovirus-infected insect cells; Strep (N); His (C); made in house; host or cells: baculovirus-infected insect cells
T1 sequence (Q9UDY8 1-824): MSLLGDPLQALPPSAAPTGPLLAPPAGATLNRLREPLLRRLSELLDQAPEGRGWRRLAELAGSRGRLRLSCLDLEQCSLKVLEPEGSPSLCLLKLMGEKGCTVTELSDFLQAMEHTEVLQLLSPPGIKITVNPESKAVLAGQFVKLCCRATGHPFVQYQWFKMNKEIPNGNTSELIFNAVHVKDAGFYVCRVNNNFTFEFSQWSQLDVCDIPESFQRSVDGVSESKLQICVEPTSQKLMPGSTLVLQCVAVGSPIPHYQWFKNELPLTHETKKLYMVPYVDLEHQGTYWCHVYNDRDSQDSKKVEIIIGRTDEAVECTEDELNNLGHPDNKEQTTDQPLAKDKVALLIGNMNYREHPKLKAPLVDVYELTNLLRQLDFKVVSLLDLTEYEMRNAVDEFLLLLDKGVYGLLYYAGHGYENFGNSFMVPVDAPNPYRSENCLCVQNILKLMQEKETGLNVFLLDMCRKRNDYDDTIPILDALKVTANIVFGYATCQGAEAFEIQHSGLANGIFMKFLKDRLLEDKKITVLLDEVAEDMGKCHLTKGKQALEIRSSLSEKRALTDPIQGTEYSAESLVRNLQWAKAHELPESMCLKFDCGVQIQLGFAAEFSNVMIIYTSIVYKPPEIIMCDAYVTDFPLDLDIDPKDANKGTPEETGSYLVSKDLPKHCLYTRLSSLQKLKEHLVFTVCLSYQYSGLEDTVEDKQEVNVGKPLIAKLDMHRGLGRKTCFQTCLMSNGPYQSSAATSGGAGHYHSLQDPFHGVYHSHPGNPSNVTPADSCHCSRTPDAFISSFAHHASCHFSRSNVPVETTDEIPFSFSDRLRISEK
Put plainly: MALT1 Biochemical Protease Assay. The conditions noted are these: 10 nM FL MALT1, 200 μM Ac-LRSR-AMC, 50 min pre-incubation, 4 h at RT; read-out: MALT1_Biochemical activity (Ac-LRSR-amc) IC50. A digest of the protocol: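 Full-length Strep-MALT1(1-824)-His from baculovirus-infected insect cells, 10 nM, preincubated with compound 50 min at RT; 200 μM Ac-LRSR-AMC (KM) in 50 mM Tris pH 7.5, 0.6 M citrate, 1 mM DTT, 1 mM EDTA, 0.05% BSA, 1.5% DMSO. Fluorescence 355/460 nm, 4 h minus time 0; 11-point 1:3 series 30 μM–0.5 nM, IC50 with Hill slope.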

Assay [2] has as its system secretion of IL6 by OCI-LY3 ABC-DLBCL cells. In words: Human IL6 Mesoscale assay (OCI-LY3). The assay is classed as cell-based. The following applies: 24 h incubation, IL6 in supernatant. A digest of the protocol:
(§1)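 OCI-LY3 cells (100,000/well) treated 24 h at 37° C with compounds, 9-point 1:2 dilutions from 15 μM to 58.6 nM (0.3% DMSO). Supernatant IL6 and IL10 quantified by Mesoscale electrochemiluminescence immunoassay; DMSO defined maximum signal, BTK inhibitor RN486 defined maximum inhibition.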

The subject of assay [3] is secretion of IL10 by OCI-LY3 ABC-DLBCL cells. Put plainly: Human IL10 Mesoscale assay (OCI-LY3). The assay is classed as cell-based. The following applies: 24 h incubation, IL10 in supernatant. A digest of the protocol:
as §1

Broadly, the IC50 is the midpoint of a concentration-inhibition curve. With `[2H]C([2H])([2H])O[C@@H](C)c1c(NC(=O)Nc2cnc(-n3nccn3)c(C(F)(F)F)c2)cncc1OC` (single isomer, unassigned) [Co. 131], the IC50 in assay [1] was 1020 nM; in assay [2] (Homo sapiens), 2340 nM; in assay [3] (Homo sapiens), approximately 890 nM.

As to `CO[C@@H](C)c1c(NC(=O)Nc2ccnc(C(F)(F)F)c2)cnc(C)c1C#N` (single isomer, unassigned) [Co. 149], the IC50 was 2880 nM in assay [1], 1910 nM in assay [2] (Homo sapiens) and 1320 nM in assay [3] (Homo sapiens).

As to `CO[C@@H](c1c(NC(=O)Nc2cnc(-n3nccn3)c(C(F)(F)F)c2)cnc(C)c1Cl)C1CC1` (single isomer, unassigned) [Co. 143], the IC50 in assay [1] was 50 nM; in assay [2] (Homo sapiens), 80 nM; in assay [3] (Homo sapiens), 50 nM.

Consider `CCOC(=O)c1cncc(NC(=O)Nc2cnc(-n3nccn3)c(Cl)c2)c1[C@@H](C)OC` [Co. 36], for which the half-maximal inhibitory concentration (IC50) in assay [1] was found to be 230 nM; in assay [2], 220 nM; in assay [3], 140 nM.

Turning to `CO[C@H](C)c1c(NC(=O)Nc2cnc(C3CC3)c(C(F)(F)F)c2)cnc(C)c1Br` [Co. 52], the IC50 in assay [1] came out at 1020 nM; in assay [2], 1450 nM; in assay [3], 710 nM.

As for `CO[C@H](C)c1c(C#N)cncc1NC(=O)Nc1cnc(-n2nccn2)c(Cl)c1` [Co. 27], the IC50 in assay [1] was determined as 2100 nM; in assay [2], 2800 nM; in assay [3], 1600 nM.

Turning to `CO[C@H](C)c1c(NC(=O)Nc2cnc(-n3nccn3)c(C(F)(F)F)c2)cnc(C(F)F)c1Cl` (single isomer, unassigned) [Co. 134], the IC50 in assay [1] was 40 nM; in assay [2] (Homo sapiens) it was 80 nM; in assay [3] (Homo sapiens) it was 80 nM.

Take `CNc1ncc(NC(=O)Nc2cnc(-n3nccn3)c(Cl)c2)c([C@@H](C)OC)c1Br` (single isomer, unassigned) [Co. 154]: the IC50 in assay [1] turned out to be 2690 nM; in assay [2] (Homo sapiens), 1100 nM; in assay [3] (Homo sapiens), 710 nM.

As to `COc1nc(-n2nccn2)c(Cl)cc1NC(=O)Nc1cnc(C)c(Cl)c1[C@@H](C)OC` [Co. 82], the half-maximal inhibitory concentration (IC50) in assay [1] is 50 nM; in assay [2] it was 120 nM; in assay [3] it was 90 nM.

Turning to `COc1c(C)ncc(NC(=O)Nc2cnc(-n3nccn3)c(Cl)c2)c1[C@@H](C)OC` [Co. 42], the IC50 in assay [1] was 540 nM; in assay [2] it was 1100 nM; in assay [3], 980 nM.

As to `CO[C@H](C)c1c(NC(=O)Nc2cnc(-n3nccn3)c(Cl)c2)cnc(C)c1C#N` [Co. 62], the half-maximal inhibitory concentration (IC50) in assay [1] came to 220 nM; in assay [2], 750 nM; in assay [3], 450 nM.

For `COc1ncc(NC(=O)Nc2cnc(C)c(Br)c2[C@H](C)OC)cc1C#N` [Co. 97], the 50% inhibitory concentration (IC50) in assay [1] amounted to 80 nM; in assay [2], 140 nM; in assay [3] it was 90 nM.

Regarding `CO[C@@H](C)c1c(NC(=O)Nc2cc(Cl)c(-n3nccn3)nc2C)cnc(C)c1C#N` [Co. 89], the IC50 was 110 nM in assay [1], 250 nM in assay [2] and 160 nM in assay [3].

Regarding `CC[C@H](OC)c1c(NC(=O)Nc2cnc(-n3nccn3)c(C(F)(F)F)c2)cnc(C)c1C#N` (single isomer, unassigned) [Co. 150], the half-maximal inhibitory concentration (IC50) is 100 nM in assay [1], 150 nM in assay [2] (Homo sapiens) and 140 nM in assay [3] (Homo sapiens).

In the case of `COc1nc(-n2nccn2)c(Cl)cc1NC(=O)Nc1cnc(C)c(Br)c1[C@@H](C)OC` [Co. 85], the concentration for half-maximal inhibition (IC50) in assay [1] worked out at 30 nM; in assay [2], 100 nM; in assay [3], 50 nM.

For the molecule `CO[C@H](C)c1c(NC(=O)Nc2cnc(-n3nccn3)c(Cl)c2)cnc(N)c1Br` [Co. 119], the values for the concentration for half-maximal inhibition (IC50) in assay [1], in assay [2] and in assay [3] were 20 nM, 90 nM and 50 nM, respectively.

`CNc1ncc(NC(=O)Nc2cnc(-n3nccn3)c(Cl)c2)c([C@H](C)OC)c1Br` (single isomer, unassigned) [Co. 153]: the IC50 was 25000 nM in assay [1], 11800 nM in assay [2] (Homo sapiens) and 8710 nM in assay [3] (Homo sapiens).

These data come from patent US12404260B2, “Pyridine rings containing derivatives as MALT1 inhibitors” (Janssen Pharmaceutica NV, priority 2019, dated 2025).
